From patent US7560466B2, “Methods of treating or preventing autoimmune diseases with 2,4-pyrimidinediamine compounds” (Rigel Pharmaceuticals, Inc., priority 2003, dated 2009)
Where two headings read alike, the source gives them in different places.

Experiments:
[1] = target: T1, Syk kinase (Homo sapiens, UniProt P43405); test: Syk kinase biochemical fluorescence polarization assay; settings: isolated Syk kinase, 11pt, read-out: fp_syk, 11pt
T1 construct: purchased Upstate, Lake Placid N.Y
Experimental: Many of the 2,4-pyrimidinediamine compounds were tested for the ability to inhibit Syk kinase catalyzed phosphorylation of a peptide substrate in a biochemical fluorescenced polarization assay with isolated Syk kinase. In this experiment, Compounds were diluted to 1% DMSO in kinase buffer (20 mM HEPES, pH 7.4, 5 mM MgCl2, 2 mM MnCl2, 1 mM DTT, 0.1 mg/mL acetylated Bovine Gamma Globulin). Compound in 1% DMSO (0.2% DMSO final) was mixed with ATP/substrate solution at room temperature. Syk kinase (Upstate, Lake Placid N.Y.) was added to a final reaction volume of 20 uL, and the reaction was incubated for 30 minutes at room temperature. […] EDTA (10 mM final)/anti-phosphotyrosine antibody (1× final)/fluorescent phosphopeptide tracer (0.5× final) was added in FP Dilution Buffer to stop the reaction for a total volume of 40 uL according to manufacturer's instructions (PanVera Corporation) The plate was incubated for 30 minutes in the dark at room temperature. Plates were read on a Polarion fluorescence polarization plate reader (Tecan). Data were converted to amount of phosphopeptide present using a calibration curve generated by competition with the phosphopeptide competitor provided in the Tyrosine Kinase Assay Kit, Green (PanVera Corporation).
In Tabe 1, all reported values are IC50s (in μM).

[2] = test system: cultured human mast cells (CHMC), IgE-induced degranulation; test: CHMC low cell density IgE activation: tryptase assay; type: cell-based
Outline: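 Tryptase release read fluorogenically (30 min, room temperature) from supernatants of anti-IgE-challenged cultured human mucosal mast cells derived from umbilical cord CD34+ cells, at low density of 1000–1500 cells/well.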

[3] = test system: cultured human mast cells (CHMC), ionomycin-induced degranulation; test: CHMC low cell density ionomycin activation: tryptase assay; type: cell-based; settings: 3pt, read-out: LD Tryptase, CHMC, Iono, 3pt
[4] = low cell density CHMC, 3pt, read-out: LD Tryptase, CHMC, IgE, 3pt
[5] = low cell density CHMC, 8pt, read-out: LD Tryptase, CHMC, IgE, 8pt
[6] = low cell density CHMC, ionomycin activation (2 μM final)
[7] = Homo sapiens, Mast cell, low cell density CHMC, 8pt, read-out: LD Tryptase, CHMC, IgE, 8pt
[8] = Homo sapiens, Mast cell, low cell density CHMC, ionomycin activation (2 μM final)
[9] = CHMC low cell density, 3pt, read-out: LD Tryptase, CHMC, IgE, 3pt
[10] = CHMC low cell density, ionomycin activation

Row | Molecule | IC50 [1] | IC50 [2, 4] | IC50 [3, 6] | also measured
1 | COc1cc(Nc2ncc(F)c(Nc3ccc4c(c3)NC(C)(C)CO4)n2)cc(OC)c1 [Compound 203, N4-(3,4-Dihydro-3,3-dimethyl-2H,4H-benz[1,4]oxazin-6-yl)-N2-(3,5-dimethoxyphenyl)-5-fluoro-2,4-pyrimidinediamine] | < 10 µM |  |  | 
2 | O=C1Nc2cc(Nc3nc(Nc4ccc(-c5cnco5)cc4)ncc3F)ccc2OC1CCO (centres unmarked) [Compound 227] | < 10 µM |  |  | 
3 | COc1cc(Nc2ncc(F)c(Nc3ccc4c(c3)NC(=O)C(C)S4(=O)=O)n2)cc(OC)c1 (centres unmarked) [Compound 263, N2-(3,5-Dimethoxyphenyl)-N4-(dioxide-2-methyl-1,1,3-trioxo-4H-benzo[1,4]thiazin-6-yl)-5-fluoro-2,4-pyrimidinediamine] | < 10 µM |  |  | 
4 | Cc1cc(C)cc(Nc2ncc(F)c(Nc3ccc4c(c3)NC(=O)C(C)S4(=O)=O)n2)c1 (centres unmarked) [Compound 264] | < 10 µM |  |  | 
5 | CC1C(=O)Nc2cc(Nc3nc(Nc4ccc5cn[nH]c5c4)ncc3F)ccc2S1(=O)=O (centres unmarked) [Compound 265] | < 10 µM |  |  | 
6 | COc1cc(Nc2ncc(F)c(Nc3ccc4c(c3)NC(=O)C(C)S4(=O)=O)n2)cc(OC)c1OC (centres unmarked) [Compound 266] | < 10 µM |  |  | 
7 | COc1cc(Nc2ncc(F)c(Nc3ccc4c(c3)NC(=O)C(C)(C)S4(=O)=O)n2)cc(OC)c1 [Compound 267] | < 10 µM |  |  | 
8 | Cc1cc(C)cc(Nc2ncc(F)c(Nc3ccc4c(c3)NC(=O)C(C)(C)S4(=O)=O)n2)c1 [Compound 268] | < 10 µM |  |  | 
9 | COc1cc(Nc2ncc(F)c(Nc3ccc4c(c3)NC(=O)C(C)(C)S4(=O)=O)n2)cc(OC)c1OC [Compound 269] | < 10 µM |  |  | 
10 | CC1(C)Sc2ccc(Nc3nc(Nc4ccc5cn[nH]c5c4)ncc3F)cc2NC1=O [Compound 295] | < 10 µM |  |  | 
11 | CC1(C)Oc2ccc(Nc3nc(Nc4cc(CO)cc(CO)c4)ncc3F)cc2NC1=O [Compound 344, N2-[3,5-Bis(hydoxymethylene)phenyl]-N4-(2,2-dimethyl-3-oxo-4H-benz[1,4]oxazin-6-yl)-5-fluoro-2,4-pyrimidinediamine] | < 10 µM |  |  | 
12 | CN(c1ccc2c(c1)OCCO2)c1nc(Cl)ncc1F [Compound 390] | > 10 µM |  |  | 
13 | COc1cc(Nc2ncc(F)c(Nc3ccc4c(c3)NC(=O)C(C)(C)O4)n2)cc(OC)c1OC [Compound 543] | < 10 µM |  |  | 
14 | CCn1ncc2cc(Nc3ncc(F)c(Nc4ccc5c(c4)NC(=O)C(C)(C)O5)n3)ccc21 [Compound 696] | < 10 µM |  |  | 
15 | CCCn1ncc2cc(Nc3ncc(F)c(Nc4ccc5c(c4)NC(=O)C(C)(C)O5)n3)ccc21 [Compound 704] | < 10 µM |  |  | 
16 | CCCn1ncc2ccc(Nc3ncc(F)c(Nc4ccc5c(c4)NC(=O)C(C)(C)O5)n3)cc21 [Compound 708] | < 10 µM |  |  | 
17 | CCCCn1ncc2cc(Nc3ncc(F)c(Nc4ccc5c(c4)NC(=O)C(C)(C)O5)n3)ccc21 [Compound 712] | < 10 µM |  |  | 
18 | CN1CCN(c2cccc(Nc3ncc(F)c(Nc4ccc5c(n4)NCCO5)n3)c2)CC1 [Compound 1142, N4-(3,4-Dihydro-2H,4H-5-pyrid[1,4]oxazin-6-yl)-5-fluoro-N2-[3-(4-methylpiperazino)phenyl]-2,4-pyrimidinediamine] |  | < 10 µM | > 10 µM | IC50 [2, 5]: < 10 µM
19 | Fc1cnc(Nc2cccc(-c3ncco3)c2)nc1Nc1ccc2c(n1)NCCO2 [Compound 1143, N4-(3,4-Dihydro-2H,4H-5-pyrid[1,4]oxazin-6-yl)-5-fluoro-N2-[3-(oxazol-2-yl)phenyl]-2,4-pyrimidinediamine] |  | < 10 µM | > 10 µM | IC50 [2, 5]: < 10 µM
20 | COc1ccc(Nc2ncc(F)c(Nc3ccc4c(n3)NCCO4)n2)cc1Cl [Compound 1146, N2-(3-Chloro-4-methoxyphenyl)-N4-(3,4-dihydro-2H,4H-5-pyrid[1,4]oxazin-6-yl)-5-fluoro-2,4-pyrimidinediamine] |  | < 10 µM | > 10 µM | 
21 | COC(=O)C=NC(=O)c1ccc(Nc2ncc(F)c(Nc3ccc4c(c3)NC(=O)[C@H](C)O4)n2)cc1 [Compound 1271, (S)-5-Fluoro-N2-[4-(N-methoxycarbonylmethyleneamino)carbonylphenyl]-N4-(2-methyl-3-oxo-2H,4H-benz[1,4]oxazin-6-yl)-2,4-pyrimidinediamine] |  |  |  | IC50 [2, 7]: < 10 µM; IC50 [3, 8]: > 10 µM
22 | COC(=O)C=NC(=O)c1ccc(Nc2ncc(F)c(Nc3ccc4c(c3)NC(=O)[C@@H](C)O4)n2)cc1 [Compound 1272, (R)-5-Fluoro-N2-[4-(N-methoxycarbonylmethyleneamino)carbonylphenyl]-N4-(2-methyl-3-oxo-2H,4H-benz[1,4]oxazin-6-yl)-2,4-pyrimidinediamine] |  |  |  | IC50 [2, 7]: < 10 µM; IC50 [3, 8]: > 10 µM
23 | CNC(=O)CNC(=O)c1ccc(Nc2ncc(F)c(Nc3ccc4c(c3)NC(=O)C(C)(C)O4)n2)cc1 [Compound 1295, N4-(2,2-Dimethyl-3-oxo-4H-benz[1,4]oxazin-6-yl)-5-fluaro-N2-[4-[N-(N-methylamino)carbonylmethylene]aminocarbonylphenyl]-2,4-pyrimidinediamine] |  | < 10 µM | > 10 µM | IC50 [2, 5]: < 10 µM
24 | CNC(=O)CNC(=O)c1ccc(Nc2ncc(F)c(Nc3ccc4c(c3)NC(=O)[C@H](C)O4)n2)cc1 [Compound 1296, (S)-5-Fluoro-N2-[4-[N-(N-methylamino)carbonylmethylene]aminocarbonylphenyl]-N4-(2-methyl-3-oxo-2H,4H-benz[1,4]oxazin-6-yl)-2,4-pyrimidinediamine] |  | < 10 µM | > 10 µM | IC50 [2, 5]: < 10 µM
25 | CC(C)(C)OC(=O)NCC(=O)NCc1ccc(Nc2ncc(F)c(Nc3ccc4c(c3)NC(=O)C(C)(C)O4)n2)cc1 [Compound 1307, N2-[4-[1-(tert-Butoxycarbonylamino)methylenecarbonylamino]methylphenyl]-N4-(2,2-dimethyl-3-oxo-4H-benz[1,4]oxazin-6-yl)-5-fluoro-2,4-pyrimidinediamine] |  | < 10 µM | < 10 µM | IC50 [2, 5]: < 10 µM
26 | C[C@@H]1Oc2ccc(Nc3nc(Nc4ccc(CNC(=O)CNC(=O)OC(C)(C)C)cc4)ncc3F)cc2NC1=O [Compound 1308, (S)—N2-[4-[1-(tert-Butoxycarbonylamino)methylenecarbonylamino]methylphenyl]-5-fluoro-N4-(2-methyl-3-oxo-2H,4H-benz[1,4]oxazin-6-yl)-2,4-pyrimidinediamine] |  | < 10 µM | < 10 µM | IC50 [2, 5]: < 10 µM
27 | CC(C)(C)OC(=O)NCC(=O)NCc1ccc(Nc2ncc(F)c(Nc3ccc4c(c3)NC(=O)C(F)(F)O4)n2)cc1 [Compound 1309, N2-[4-[1-(tert-Butoxycarbonylamino)methylenecarbonylamino]methylphenyl]-N4-(2,2-difluoro-3-oxo-4H-benz[1,4]oxazin-6-yl)-5-fluoro-2,4-pyrimidinediamine] |  | < 10 µM | > 10 µM | IC50 [2, 5]: < 10 µM
28 | N2-(3-Chloro-4-methoxyphenyl)-N4-(2,2-dimethyl-3-oxo-4H-benz[1,4]oxazin-6-yl)-5-fluoro-N4-methyl-2,4-pyrimidinediamine [Compound 394] |  |  |  | IC50 [2, 9]: < 10 µM; IC50 [3, 10]: < 10 µM
29 | N2-(Bis-2-hydroxyethyl)-N4-(3,4-ethylenedioxyphenyl)-5-fluoro-N4-methyl-2,4-pyrimidinediamine [Compound 492] |  |  |  | IC50 [2, 9]: > 10 µM; IC50 [3, 10]: > 10 µM
30 | N4-(2,2-Difluoro-3-oxo-4H-benz[1,4]oxazin-6-yl)-5-fluoro-N2-[4-[N-(N-methylamino)carbanylmethylene]aminocarbonyl phenyl]-2,4-pyrimidinediamine [Compound 1297] |  | < 10 µM | > 10 µM | 
